The assay deals with Vasopressin V1 receptor (Homo sapiens, UniProt P37288+P47901). The assay is described as follows: Compound was evaluated for antagonistic activity against vasopressin V1 receptor. In kind it is functional.
For the molecule `CC(=O)NCCCOc1ccc(C(=O)N2CCC(N3C(=O)CCc4ccccc43)CC2)cc1`, the IC50 stood at 0.44 µM. In turn, `CC(=O)NC(O)CCOc1ccc(C(=O)N2CCC(N3C(=O)CCc4ccccc43)CC2)cc1` (stereo not drawn) came in with an IC50 of 0.6 µM.

In the case of `CC(=O)NC(O)CCOc1ccc(C(=O)N2CCC(n3c(=O)ccc4ccccc43)CC2)cc1` (stereo not drawn), the IC50 was determined as 3.3 µM.

The values above are taken from ChEMBL document CHEMBL1126531, “Synthesis of N-Acetylhemiaminal metabolites of opc-21268, vasopressin V1 receptor antagonist” (Bioorg Med Chem Lett, 1993).
